# Key:
# Type in all cases: in vivo, rat
# [1] = Serum leptin levels by immunoassay in DIO prone and normal HSD rats after amylin (Example 3); details: amylin 100 μg/kg/day, 14 days, FIG. 8
# Description: DIO prone and normal HSD rats were divided into three treatment groups. Two groups were implanted with subcutaneous osmotic mini-pumps (DURECT Corp., Cupertino, Calif.) designed to deliver vehicle or amylin (100 μg/kg/day) and the third group was pair-fed to the amount consumed by the amylin-treated group for a 14 day period. Serum leptin levels were determined by immunoassays using a commercial kit (Linco Research, Inc., St. Charles, Mo.). […] Thus, DIO prone rats are hyper-leptinemic.
# [2] = DIO rats, amylin and phentermine, body weight and body composition (Example 4)
# Description: The combination of amylin and catecholaminergic agonist, phentermine, were also tested for effects on changes in body weight and body composition. Phentermine is classically referred to as a catecholaminergic agonist as it actually hits NA/5-HT receptors. DIO male rats were fattened and divided into four treatment groups, as described above. Each group was implanted with subcutaneous osmotic mini-pumps and/or inserted with an oral gavage, designed to deliver vehicle, phentermine (10 mg/kg/day), amylin (100 μg/kg/day) or phentermine (10 mg/kg/day)+amylin (100 μg/kg/day) for a 14 day period. The mini-pump contained either vehicle (50% DMSO in water) or amylin while the oral gavage administered either sterile water or phentermine. Body weight was recorded daily and body composition was measured prior to and after drug treatment using NMR.
# [3] = In-bred DIO (Levin) rats, amylin and leptin, body weight and NMR body composition (Example 2); details: two weeks, leptin 500 μg/kg/day, amylin 100 μg/kg/day, FIG. 6A
# Description: They were housed individually in shoebox cages at 22 C in a 12/12-hour light dark cycle.
# (§1) Body composition was measured prior to and after drug treatment using NMR (Echo Medical Systems, Houston, Tex.). For body composition measurements, rats were briefly placed (˜1 min) in a well-ventilated plexiglass tube that was then inserted into a specialized rodent NMR machine. Rats were scanned prior to pump implantation and on the final day of the experiment. This enabled the calculation of changes in actual grams of fat and dry lean tissue (e.g., grams of body fat after treatment−grams of body fat at baseline=change in grams of body fat) and changes in % body composition for fat and dry lean tissue (e.g., % body fat after treatment−% body fat at baseline=change in % body fat).
# [4] = Pair-feeding experiment in DIO rats, amylin+leptin (Example 2); details: two weeks, ad libitum access to food, FIG. 7
# Description: Amylin is known to have an anorectic effect on a recipient. In order to examine the effect of amylin+leptin in the context of an anorectic effect of amylin, a pair-feeding experiment was performed. DIO rats and drug treatment groups were established as described above. DIO rats in the vehicle, amylin, and amylin+leptin treatment groups had ad libitum access to food, while intake in the pair-fed leptin treatment was restricted to the amount consumed by the amylin-treated group. Body weight was recorded daily for the two weeks of treatment. […] The combination of amylin+leptin results in a decrease of about 12% in body weight relative to vehicle control.
# [5] = DIO rats, amylin and PYY(3-36), body weight and body composition (Example 7)
# Description: Each group was implanted with subcutaneous osmotic mini-pumps, designed to deliver vehicle, PYY(3-36) (1000 μg/kg/day), amylin (100 μg/kg/day) or PYY(3-36) (1000 μg/kg/day)+amylin (100 μg/kg/day) for a 14 day period. PYY(3-36) was administered by mini-pump at a range of doses (100, 200, 400, 800, 1000 μg/kg/day). Amylin 100 μg/kg/day (dissolved in 50% DMSO sterile water), PYY(3-36) (dissolved in 50% DMSO sterile water) or vehicle was administered by mini-pump. Food intake and body weight was recorded daily. Body composition was measured prior to and after drug treatment using NMR (Echo Medical Systems, Houston, Tex.). For body composition measurements, rats were briefly placed (˜1 min) in a well-ventilated plexiglass tube that was then inserted into a specialized rodent NMR machine. Rats were scanned prior to pump implantation and on the final day of the experiment. This enabled the calculation of changes in actual grams of fat and dry lean tissue (e.g., grams of body fat after treatment−grams of body fat at baseline […]) and changes in % body composition for fat and dry lean tissue (e.g., % body fat after treatment−% body fat at baseline=change in % body fat).
# [6] = DIO (Levin) rats, amylin and CB-1 antagonist rimonabant, body weight and body composition (Example 5)
# Description: These rats were developed by Barry Levin from a line of Crl:CD®(SD)BR rats that are prone to become obese on a diet relatively high in fat and energy. They were housed individually in shoebox cages at 22 C in a 12/12-hour light dark cycle. […] Rats were habituated to oral gavage for 1 week prior to treatment. Rimonabant was administered at a range of doses (0.1, 0.3, 1.0, 3.0. 10 mg/kg/day) by oral gavage. Amylin (dissolved in 50% DMSO sterile water) or vehicle was administered by mini-pump (100 μg/kg/day). Rimonabant was always delivered just prior to lights out. Food intake and body weight were measured at 1 and 2 weeks post-treatment. Body composition was measured prior to and after drug treatment using NMR (Echo Medical Systems, Houston, Tex.). For body composition measurements, rats were briefly placed (˜1 min) in a well-ventilated plexiglass tube that was then inserted into a specialized rodent NMR machine. Rats were scanned prior to pump implantation and on the final day of the experiment. This enabled the calculation of changes in actual grams of fat and dry lean tissue (e.g., grams of body fat after treatment−grams of body fat at baseline=change in grams of body fat) and changes in % body composition for fat and dry lean tissue (e.g., % body fat after treatment−% body fat at baseline=change in % body fat).
# [7] = DIO rats, amylin and sibutramine, body weight and body composition (Example 4)
# Description: Rat amylin was dissolved in 50% DMSO in sterile water and sibutramine was dissolved in sterile water. Each group was implanted with subcutaneous osmotic mini-pumps designed to deliver vehicle, sibutramine (3 mg/kg/day) or amylin (100 μg/kg/day) for a 14 day period. Body weight and food intake were recorded daily. Body composition was measured prior to and after drug treatment using NMR (Echo Medical Systems, Houston, Tex.). For body composition measurements, rats were briefly placed (˜1 min) in a well-ventilated plexiglass tube that was then inserted into a specialized rodent NMR machine. Rats were scanned prior to pump implantation and on the final day of the experiment. This enabled the calculation of changes in actual grams of fat and dry lean tissue (e.g., grams of body fat after treatment−grams of body fat at baseline=change in grams of body fat) and changes in % body composition for fat and dry lean tissue (e.g., % body fat after treatment−% body fat at baseline=change in % body fat).
# [8] = DIO rats, amylin and exendin-4 analog, body weight and body composition (Example 6)
# Description: as §1, with “[…]. Prior to drug administration rats had typically attained a mean body weight of 500 g Exendin-4 analog was administered by minipump at a range of doses (0.3, 1, 3, 10, 30 μg/kg/day). Amylin (dissolved in 50% DMSO in water) or vehicle was administered by mini-pump (100 μg/kg/day). Body weight and food intake was recorded daily. Body” for “Body”
substance,measurement,setting,value
Rat amylin,serum (plasma) leptin levels,[1]; DIO prone rats,significantly reduced
same,serum (plasma) leptin levels,[1]; normal HSD rats,significantly reduced
same,changes in body fat (fat mass),"[2]; after two weeks, FIG. 11B",greater amount of fat mass loss
same,changes in body protein (lean mass),"[2]; after two weeks, FIG. 11C",preserved lean (protein) mass
same,vehicle-corrected decrease in percent body weight,"[2]; two weeks, phentermine 10 mg/kg/day oral gavage, amylin 100 μg/kg/day, FIG. 11A",~7%
same,vehicle-corrected decrease in percent body weight,[3],6%
same,decrease in body weight relative to vehicle control,[4],~6%
same,changes in body protein (lean mass),"[5]; after two weeks, FIG. 16C",increase in lean (protein) mass
same,changes in body fat (fat mass loss),"[5]; after two weeks, order PYY(3-36) alone, amylin alone, combination, FIG. 16B",Increasing amount of fat mass loss
same,vehicle-corrected decrease in percent body weight,"[5]; two weeks, PYY(3-36) 1000 μg/kg/day, amylin 100 μg/kg/day, FIG. 16A",~7%
same,changes in body fat (fat mass),"[6]; after two weeks, FIG. 12B",Fat mass loss was evident
same,changes in body protein (lean mass),"[6]; after two weeks, FIG. 12C",relatively equivalent increase in lean (protein) mass
same,vehicle-corrected decrease in percent body weight,"[6]; two weeks, rimonabant 3 mg/kg/day oral gavage, amylin 100 μg/kg/day, FIG. 12A",~6%
same,changes in body fat (fat mass),"[7]; after two weeks, FIG. 10B",Fat mass loss was evident
same,changes in body protein (lean mass),"[7]; after two weeks, FIG. 10C",increase in lean (protein) mass
same,vehicle-corrected decrease in percent body weight,"[7]; two weeks, sibutramine 3 mg/kg/day, amylin 100 μg/kg/day, FIG. 10A",~6%
same,changes in body fat (fat mass),"[8]; after two weeks, FIG. 15B",relatively equivalent decrease in fat mass
same,changes in body protein (lean mass),"[8]; after two weeks, FIG. 15C",relatively equivalent increase in lean (protein) mass
same,vehicle-corrected decrease in percent body weight,"[8]; two weeks, exendin-4 analog 10 μg/kg/day, amylin 100 μg/kg/day, FIG. 15A",~6%
